In experiment [1] the target is T1, Human Vanilloid Receptor 1 (Homo sapiens, UniProt Q8NER1).
T1 construct: expressed in transfected cells; host or cells: HEK 293
In words: Human VR1 functional assay using FLIPR, Protocol 1. The note with it: for inhibition at 9 µM: HEK293, 9 uM, HEK 293 cells transfected with hVR1, read-out: h % I (9 uM); for pIC50: decreased capsaicin (EC80)-induced calcium response, HEK 293 hVR1, read-out: h IC50. The format is cell-based. The method, then: The functional activity of the test compounds was determined by measuring changes in intracellular calcium concentration using FLIPR™ Calcium-3 Assay Kit and FLIPR™ technology.
HEK 293 cells transfected with Human Vanilloid Receptor 1 were maintained at 37° C. and 5% CO2 in: Dulbecco's Modification of Eagle's Medium (high glucose, L-glutamine, pyridoxine HCl, No sodium pyruvate), 10% FBS, 1× Penicillin-Streptomycin-Amphotericin B, 200 ug/mL zeocin. Approximately 24 hours prior to assay, 30,000 cells/well were plated onto a 384-well black clear bottom poly-D-lysine-coated assay plate with a well volume of 25 µL using Titertek Multidrop.
On the day of the assay, the medium was dumped and 50 μL 1× dye were loaded using Multidrop. Plates were incubated with dye at 37° C. for 30 minutes followed by 30 minutes incubation at room temperature. Then the plates were assayed by FLIPR™ with 2 additions: 12.5 μL test compound with 5 minutes data acquisition followed by 12.5 μL capsaicin at the EC80 concentration.
The EC50 values of test compounds were calculated based on a test compound-induced calcium response at the 5-minute time point. The IC50 values of compounds were calculated based on a decreased capsaicin-induced calcium response in the presence of test compound.

Experiment [2] has as its target T2, hVR1 receptors (Homo sapiens, UniProt Q8NER1).
T2 construct: expressed in transfected cells; host or cells: HEK293
In words: Human VR1 binding assay ([3H]RTX). The following applies: membranes of HEK293 cells transfected with human VR1; for h Binding % I (1 uM): inhibition of [3H]RTX binding; for pKi: [3H]RTX binding. On the procedure: Compounds of the present invention were tested for their ability to inhibit the binding of [^3H] RTX to hVR1 receptors in a [^3H] RTX binding assay as previously described (Zhang, Sui-Po. Improved ligand binding assays for vanilloid receptors. PCT Int. Appl. (2002), WO 0233411 A1 20020425 AN 2002:315209, and Grant, Elfrida R., Dubin, Adrienne E., Zhang, Sui-Po, Zivin, Robert A., Zhong, Zhong Simultaneous intracellular calcium and sodium flux imaging in human vanilloid receptor 1 (VR1)-transfected human embryonic kidney cells: a method to resolve ionic dependence of VR1-mediated cell death. J. Pharmacol. Exp. Ther., 2002, 300(1), 9-17.)
HEK293 cells were transfected with human VR1 vanilloid receptors and washed with Hank's balanced Salt Solution, dissociated with cell dissociation buffer (Sigma), and then centrifuged at 1000×g for 5 min. Cell pellets were homogenized in cold 20 mM HEPES buffer, pH 7.4, containing 5.8 mM NaCl, 320 mM sucrose, 2 mM MgCl2, 0.75 CaCl2 and 5 mM KCl and centrifuged at 1000×g for 15 min. The resultant supernate was then centrifuged at 40000×g for 15 min. The pelleted membranes were stored in a freezer at −80° C.
Approximately 120 μg protein/ml from membranes were incubated with indicated concentrations of [^3H]RTX in 0.5 ml of the HEPES buffer (pH 7.4) containing 0.25 mg/mL fatty acid-free bovine serum albumin at 37° C. for 60 min. The reaction mixture was then cooled to 4° C., added 0.1 mg α1-acid glycoprotein to each sample and incubated at 4° C. for 15 min. The samples were centrifuged at 18500×g for 15 min. The tip of the microcentrifuge tube containing the pellet was cut off. Bound radioactivity was quantified by scintillation counting. Non-specific binding was tested in the presence of 200 nM unlabeled RTX.
Data were calculated according to the equation: % inhibition=(total binding−binding)*100/(total binding−non specific binding). Ki values were calculated using a Prism program.

The mark [3] stands for this setting: inhibition of capsaicin (EC80)-induced calcium response.

pIC50, pKi: −log10 of the molar value.

T1 sequence (Q8NER1 whole entry): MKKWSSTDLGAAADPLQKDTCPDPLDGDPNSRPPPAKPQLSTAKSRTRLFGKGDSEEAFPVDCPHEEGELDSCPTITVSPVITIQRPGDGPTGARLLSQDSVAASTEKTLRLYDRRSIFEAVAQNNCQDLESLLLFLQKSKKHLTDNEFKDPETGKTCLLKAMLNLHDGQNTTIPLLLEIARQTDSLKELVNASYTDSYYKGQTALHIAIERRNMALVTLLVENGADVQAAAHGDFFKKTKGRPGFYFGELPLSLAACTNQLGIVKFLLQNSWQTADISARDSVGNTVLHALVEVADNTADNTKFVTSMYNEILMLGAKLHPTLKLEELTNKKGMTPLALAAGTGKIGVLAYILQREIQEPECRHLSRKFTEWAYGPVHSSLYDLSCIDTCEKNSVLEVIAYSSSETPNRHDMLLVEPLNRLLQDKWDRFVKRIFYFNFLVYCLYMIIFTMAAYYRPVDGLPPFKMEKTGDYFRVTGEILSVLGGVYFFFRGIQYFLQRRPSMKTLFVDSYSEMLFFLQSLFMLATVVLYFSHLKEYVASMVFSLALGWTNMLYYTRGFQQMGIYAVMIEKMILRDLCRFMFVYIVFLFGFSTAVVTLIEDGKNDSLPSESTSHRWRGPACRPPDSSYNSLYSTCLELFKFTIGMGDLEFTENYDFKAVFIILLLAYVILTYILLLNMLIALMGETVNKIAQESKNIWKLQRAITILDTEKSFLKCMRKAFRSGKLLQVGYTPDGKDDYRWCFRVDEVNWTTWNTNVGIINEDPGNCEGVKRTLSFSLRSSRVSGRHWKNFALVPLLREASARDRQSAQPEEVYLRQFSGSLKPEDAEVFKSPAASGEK
T2 sequence (Q8NER1 whole entry): as above

As a reminder, the pIC50 is −log10 of the IC50, conventionally taken in molar units. As a reminder, the pKi is the negative decadic logarithm of the Ki, by convention in mol/L. Low readings indicate a high Ki, high ones a low Ki. In the case of `Cc1ccc(N2CCC(C(=O)Nc3cnc4ccccc4c3)CC2)cc1C` [Example 6, 1-(3,4-Dimethyl-phenyl)-piperidine-4-carboxylic acid quinolin-3-ylamide], in experiment [1] (setting [3]), the inhibition at 9 µM turned out to be 92.2%. The negative-log IC50 (pIC50) in experiment [1] is 6.46. For the same compound, in experiment [2], the “h Binding % I (1 uM)” value amounted to 66.5% and the negative-log Ki (pKi) is 6.67.
`O=C(Nc1cccc2[nH]ccc12)C1CCN(c2cccc(C(F)(F)F)c2)CC1` [Example 8, 1-(3-Trifluoromethyl-phenyl)-piperidine-4-carboxylic acid (1H-indol-4-yl)-amide]: the inhibition at 9 µM in experiment [1] (setting [3]) worked out at 101%. Moreover, the pIC50 in experiment [1] is 6.64. Moreover, in experiment [2], the “h Binding % I (1 uM)” value is listed as 87.0% and the negative-log Ki (pKi) was 6.87.
For the compound `CC(=O)N1CCc2cccc(NC(=O)C3CCN(c4cccc(C(F)(F)F)c4)CC3)c21` [Example 9, 1-(3-Trifluoromethyl-phenyl)-piperidine-4-carboxylic acid (1-acetyl-2,3-dihydro-1H-indol-7-yl)-amide], the inhibition at 9 µM in experiment [1] (setting [3]) is 48.5%. Moreover, the pIC50 in experiment [1] is 5.25. Besides, the “h Binding % I (1 uM)” value in experiment [2] was 4.8%.
In the same order, the values of `O=C(Nc1ccc2ncsc2c1)C1CCN(c2cccc(C(F)(F)F)c2)CC1` [Example 13, 1-(3-Trifluoromethyl-phenyl)-piperidine-4-carboxylic acid benzothiazol-6-ylamide] are 88%, 6.32 and 47.7%.
With `CC(=O)N1CCc2ccc(NC(=O)C3CCN(c4cccc(C(F)(F)F)c4)CC3)cc21` [Example 16, 1-(3-Trifluoromethyl-phenyl)-piperidine-4-carboxylic acid (1-acetyl-2,3-dihydro-1H-indol-6-yl)-amide], the inhibition at 9 µM in experiment [1] (setting [3]) worked out at 83%. Moreover, the pIC50 in experiment [1] is 6.10. In addition, the “h Binding % I (1 uM)” value in experiment [2] is given as 15.0%.
In the case of `O=C(Nc1cccc2[nH]ccc12)C1CCN(c2cccc(C(F)(F)F)c2)CC1` [Example 21, 1-(3-Trifluoromethyl-phenyl)-piperidine-4-carboxylic acid (1H-indol-4-yl)-amide], the “h % I (9 uM)” value in experiment [1] (9 uM, inhibition of capsaicin (EC80)-induced calcium response, HEK 293 cells transfected with hVR1) was found to be 102.0%. In addition, the pIC50 in experiment [1] was 6.80. Moreover, in experiment [2], the “h Binding % I (1 uM)” value amounted to 86.9% and the pKi is 6.87.
On to `CC(=O)c1cc2c(cc1NC(=O)C1CCN(c3cccc(C(F)(F)F)c3)CC1)OCO2` [Example 33, 1-(3-Trifluoromethyl-phenyl)-piperidine-4-carboxylic acid (6-acetyl-benzo[1,3]dioxol-5-yl)-amide], for which, in experiment [1] (setting [3]), the inhibition at 9 µM stood at 12.6%. In experiment [2], the “h Binding % I (1 uM)” value came to 12.8%.
Regarding `O=C1COc2ccc(NC(=O)C3CCN(c4cccc(C(F)(F)F)c4)CC3)cc2N1` [Example 34, 1-(3-Trifluoromethyl-phenyl)-piperidine-4-carboxylic acid (3-oxo-3,4-dihydro-2H-benzo[1,4]oxazin-6-yl)-amide], the inhibition at 9 µM in experiment [1] (setting [3]) worked out at 94.5%. Besides, in experiment [1], the pIC50 is 6.68. The negative logarithm of the Ki (pKi) in experiment [2] was 7.19.
`O=C(Nc1cnc2ccccc2c1)C1CCN(c2ccccc2Br)CC1` [Example 53, 1-(2-Bromo-phenyl)-piperidine-4-carboxylic acid quinolin-3-ylamide]: the inhibition at 9 µM in experiment [1] (setting [3]) was 104%. Also, the negative logarithm of the IC50 (pIC50) in experiment [1] was 6.80. The “h Binding % I (1 uM)” value in experiment [2] is reported as 47.3%.
In the case of `Cc1cccc(N2CCC(C(=O)Nc3ccc4c(c3)NC(=O)CO4)CC2)c1` [Example 140, 1-m-Tolyl-piperidine-4-carboxylic acid (3-oxo-3,4-dihydro-2H-benzo[1,4]oxazin-6-yl)-amide], in experiment [1] (setting [3]), the inhibition at 9 µM is 84%. Besides, the pIC50 in experiment [1] is 6.31. In addition, in experiment [2], the negative-log Ki (pKi) is 6.65.
In the same order, the values of `Cc1ccccc1N1CCC(C(=O)Nc2ccc3c(c2)NC(=O)CO3)CC1` [Example 141, 1-o-Tolyl-piperidine-4-carboxylic acid (3-oxo-3,4-dihydro-2H-benzo[1,4]oxazin-6-yl)-amide] are 100%, 6.82 and 7.21.
As to `CCc1ccccc1N1CCC(C(=O)Nc2ccc3c(c2)NC(=O)CO3)CC1` [Example 142, 1-(2-Ethyl-phenyl)-piperidine-4-carboxylic acid (3-oxo-3,4-dihydro-2H-benzo[1,4]oxazin-6-yl)-amide], the inhibition at 9 µM in experiment [1] (setting [3]) turned out to be 96.3%. In addition, the pIC50 in experiment [1] was 6.82. The compound also gave a negative logarithm of the Ki (pKi) in experiment [2] of 6.90.
As to `CC(C)c1ccccc1N1CCC(C(=O)Nc2ccc3c(c2)NC(=O)CO3)CC1` [Example 143, 1-(2-Isopropyl-phenyl)-piperidine-4-carboxylic acid (3-oxo-3,4-dihydro-2H-benzo[1,4]oxazin-6-yl)-amide], the inhibition at 9 µM in experiment [1] (setting [3]) was determined as 101%. For the same compound, in experiment [1], the pIC50 was 6.74. In experiment [2], this compound had a pKi of 7.11.
Regarding `Cc1ccc(N2CCC(C(=O)Nc3ccc4c(c3)NC(=O)CO4)CC2)cc1C` [Example 144, 1-(3,4-Dimethyl-phenyl)-piperidine-4-carboxylic acid (3-oxo-3,4-dihydro-2H-benzo[1,4]oxazin-6-yl)-amide], the inhibition at 9 µM in experiment [1] (setting [3]) was found to be 77%. For the same compound, the pIC50 in experiment [1] was 6.42. Further, the negative-log Ki (pKi) in experiment [2] is 6.50.
With `Cc1cccc(N2CCC(C(=O)Nc3ccc4c(c3)NC(=O)CO4)CC2)c1C` [Example 145, 1-(2,3-Dimethyl-phenyl)-piperidine-4-carboxylic acid (3-oxo-3,4-dihydro-2H-benzo[1,4]oxazin-6-yl)-amide], the inhibition at 9 µM in experiment [1] (setting [3]) amounted to 99.5%. The pIC50 in experiment [1] is 7.22. The same compound showed a pKi in experiment [2] of 7.57.
In the same order, the values of `CC(C)(C)c1ccc(N2CCC(C(=O)Nc3ccc4c(c3)NC(=O)CO4)CC2)cc1` [Example 146, 1-(4-tert-Butyl-phenyl)-piperidine-4-carboxylic acid (3-oxo-3,4-dihydro-2H-benzo[1,4]oxazin-6-yl)-amide] are 112%, 7.05 and 6.88.
On to `O=C1COc2ccc(NC(=O)C3CCN(c4c(F)c(F)c(Br)c(F)c4F)CC3)cc2N1` [Example 164, 1-(4-Bromo-2,3,5,6-tetrafluoro-phenyl)-piperidine-4-carboxylic acid (3-oxo-3,4-dihydro-2H-benzo[1,4]oxazin-6-yl)-amide], for which the inhibition at 9 µM in experiment [1] (setting [3]) is 87%. Moreover, the pIC50 in experiment [1] was 6.96.
For `O=C1COc2ccc(NC(=O)C3CCN(c4ccccc4C(F)(F)F)CC3)cc2N1` [Example 165, 1-(2-Trifluoromethyl-phenyl)-piperidine-4-carboxylic acid (3-oxo-3,4-dihydro-2H-benzo[1,4]oxazin-6-yl)-amide] the same measures were 94.8% and 6.42.
Turning to `O=C1COc2ccc(NC(=O)C3CCN(c4cc(C(F)(F)F)ccc4C(F)(F)F)CC3)cc2N1` [Example 166, 1-(2,5-Bis-trifluoromethyl-phenyl)-piperidine-4-carboxylic acid (3-oxo-3,4-dihydro-2H-benzo[1,4]oxazin-6-yl)-amide], the inhibition at 9 µM in experiment [1] (setting [3]) was 100%. Further, the pIC50 in experiment [1] was 6.54.
For the compound `O=C1COc2ncc(NC(=O)C3CCN(c4cccc(C(F)(F)F)c4)CC3)cc2N1` [Example 167, 1-(3-Trifluoromethyl-phenyl)-piperidine-4-carboxylic acid (2-oxo-2,3-dihydro-1H-pyrido[2,3-b][1,4]oxazin-7-yl)-amide], the inhibition at 9 µM in experiment [1] (setting [3]) stood at 45.7%.
The same measure, in the same setting: the same measure for `O=C(Nc1ccc2c(c1)N(CCO)C(=O)CO2)C1CCN(c2cccc(C(F)(F)F)c2)CC1` [Example 168, 1-(3-Trifluoromethyl-phenyl)-piperidine-4-carboxylic acid [4-(2-hydroxy-ethyl)-3-oxo-3,4-dihydro-2H-benzo[1,4]oxazin-6-yl]-amide]: 59.6%.

Source of the values: US20060116368A1, “4-Piperidinecarboxamide modulators of vanilloid VR1 receptor” (priority 2004, published 2006).
